Reference: patent US4065356A, “Production of antibiotic FR-02A (efrotomycin) by streptomyces lactamdurans” (priority 1977, dated 1977)
Entries after “also recorded” stand apart in the source; their conditions may differ.

Legend:
[1] = test system: Vibrio percolans American Type Culture Collection (ATCC 8461); experiment: disc-plate assay, zone of inhibition; assay type: cell-based
Experimental: Assays were run by the disc-plate procedure using 3/8 inch filter paper discs. The assay plates were prepared using Difco nutrient agar plus 2.0 g./l. Difco yeast extract at 10 ml. per plate. An overnight growth of the assay organism, Vibrio percolans American Type Culture Collection (ATCC 8461) in nutrient broth plus 0.2% yeast extract was diluted in sterile saline solution to a suspension having 40% transmittance at a wave length of 660 mμ. This suspension was added at 20 ml./liter of medium prior to pouring the plates.
The assay plates were held at 4° C. until used (5 day maximum). Following the application of the antibiotic-saturated assay discs the plates were incubated at 28° C. for a period of from 16 to 24 hours. Zones of inhibition were read as mm. diameter. They were used to determine relative potencies or, when compared with a purified reference standard, the potency in μg./ml. Assays of FR-02A in fermentation broths, mycelia and suspended nutrient matter separated from fermentation broths and in broths free of solids were performed after extracting the FR-02A into a suitable solvent. […] When such an assay is performed in a quantitative fashion, from 50 to 100 μg./ml. of antibiotic can be detected.

Bacillus sp. 633 = experiment: Antibiotic Spectrum Profile, agar diffusion test; assay type: cell-based; conditions: 1 mg./ml., read-out: Diameters of Inhibition Zones
Experimental: To further characterize FR-02A in vitro, activity data for it was obtained using an antibiotic spectrum profile. The test involves applications of a droplet of antibiotic approximately 0.015 ml. on the surface of seeded complex agar plates. […] The results are reported in Table 1 in terms of mm. of inhibition zones.

Proteus vulgaris 1012 = experiment: Antibiotic Spectrum Profile, agar diffusion test; assay type: cell-based; conditions: 1 mg./ml., read-out: Diameters of Inhibition Zones
Bacillus subtilis 964 = experiment: Antibiotic Spectrum Profile, agar diffusion test; assay type: cell-based; conditions: 1 mg./ml., read-out: Diameters of Inhibition Zones
[2] = test system: Streptococcus faecalis 753; experiment: Antibiotic Spectrum Profile, agar diffusion test; assay type: cell-based; conditions: Enterococcus faecalis, 1 mg./ml., read-out: Diameters of Inhibition Zones
[3] = test system: Brucella bronchiseptica 965; experiment: microbe, parasite or virus in culture; assay type: cell-based; conditions: Bordetella bronchiseptica, 965, read-out: Diameters of Inhibition Zones
Vibrio percolans 1272 = experiment: Antibiotic Spectrum Profile, agar diffusion test; assay type: cell-based; conditions: Comamonas terrigena, 1 mg./ml., read-out: Diameters of Inhibition Zones
S. aureus 2756 = experiment: Antibiotic Spectrum Profile, agar diffusion test; assay type: cell-based; conditions: Staphylococcus aureus, 1 mg./ml., read-out: Diameters of Inhibition Zones
Strep. faecium 2820 = experiment: Antibiotic Spectrum Profile, agar diffusion test; assay type: cell-based; conditions: Enterococcus faecium, 1 mg./ml., read-out: Diameters of Inhibition Zones
Proteus vulgaris 838 = experiment: Antibiotic Spectrum Profile, agar diffusion test; assay type: cell-based; conditions: 1 mg./ml., read-out: Diameters of Inhibition Zones
Strep. pyogenes = experiment: in vivo test in mice, Strep. pyogenes infection; conditions: infection IP, therapy IP, at time of infection and 6 hours later
Experimental: (§1) *Values in the table are expressed in mg./mouse. Both infections and
(§2) therapeutic doses of FR-02A were administered intraperitoneally. FR-02A
(§3) was administered at time of infection and again 6 hours later.

[4] = toxicity studies in noninfected mice; assay type: in vivo; conditions: for Toxicity, Tolerated / Toxicity, Toxic: IP
Experimental: as §1, §2, §3
**Toxicity studies of FR-02A in noninfected mice indicate that two doses
of 2.5 mg./mouse, 6 hours apart are tolerated; but higher doses i.e. 5 to […]

bacteria = experiment: antibacterial activity in vivo in mice; conditions: in words
coccidia [5] = experiment: mouse coccidiosis; conditions: in vivo
gram-positive bacteria = experiment: antibacterial activity; assay type: cell-based
coccidia [6] = experiment: activity against coccidia; assay type: cell-based
E. acervulina = experiment: in vitro activity; assay type: cell-based
Bordetella = experiment: in vitro activity; assay type: cell-based
Streptococcus faecalis = experiment: in vitro activity; assay type: cell-based
M. hyorthinis = experiment: in vitro activity; assay type: cell-based
species of Pasteurella = experiment: in vitro activity; assay type: cell-based
[7] = test system: Salmonealla gallinarum (MB 1287); experiment: in vitro activity; assay type: cell-based
[8] = test system: Pseudomonas stutzeri (MB 1231); experiment: in vitro activity; assay type: cell-based
[9] = test system: Staphylococcus aureus (MB 210); experiment: in vitro activity; assay type: cell-based

In the case of `CC=CC=CC1OC(O)(C(CC)C(=O)NCC=CC=C(C)C(OC)C(C)C2OC(C=CC=CC=C(C)C(=O)c3c(O)ccn(C)c3=O)C(O)C2O)C(O)C(OC2OC(C)C(OC3OC(C)C(OC)C(O)C3OC)C(OC)C2O)C1(C)C` (stereo not drawn) [FR-02A, efrotomycin], the zone of inhibition at 200 µg/mL ([1]; Comamonas terrigena, ATCC8461, 200 μg./ml., 3/8 inch discs, read-out: zones of inhibition) is reported as 16 mm, the activity ([1]; Vibrio percolans (ATCC 8461)) is reported as “Activity was also found” and the zone of inhibition at 1000 µg/mL (Bacillus sp. 633) is reported as 18 mm. It also gave a zone of inhibition at 1000 µg/mL (Proteus vulgaris 1012) of 10 mm, a zone of inhibition at 1000 µg/mL (Bacillus subtilis 964) of 19 mm and a zone of inhibition at 1000 µg/mL [2] of 11 mm. It also gave a zone of inhibition at 1000 µg/mL [3] of 18 mm, a zone of inhibition at 1000 µg/mL (Vibrio percolans 1272) of 21 mm and a zone of inhibition at 1000 µg/mL (S. aureus 2756) of 23 mm. For the same compound, the zone of inhibition at 1000 µg/mL (Strep. faecium 2820) was 20 mm, the zone of inhibition at 1000 µg/mL (Proteus vulgaris 838) was 18 mm and the ED50 (Strep. pyogenes) was 0.247 mg./mouse. The “Toxicity, Tolerated” value ([4]; Table 2 line Proteus vulgaris) was 5.0 mg./mouse, the “Toxicity, Toxic” value ([4]; Table 2 line Proteus vulgaris) was 5.0 mg./mouse and the “Toxicity, Tolerated” value ([4]; Table 2 line Strep. pyogenes) was 1.25 mg./mouse. For the same compound, the “Toxicity, Toxic” value ([4]; Table 2 line Strep. pyogenes) was 5.0 mg./mouse, the toxicity in vivo ([4]; in mice, in words) was “low toxicity” and the tolerated dose ([4]; noninfected mice, two doses 6 hours apart) was 2.5 mg./mouse. The “antibacterial activity in vivo” value (bacteria) was “broad spectrum of antibacterial activity”, the “efficacy against mouse coccidiosis” value (coccidia [5]) was “effective” and the “activity against gram-positive bacteria” value (gram-positive bacteria) was “shows activity; also recorded: effective”. For the same compound, the activity against coccidia (coccidia [6]) was “shows activity”, the in vitro activity (E. acervulina) was “effective” and the in vitro activity (Bordetella) was “effective”. For the same compound, the in vitro activity (Streptococcus faecalis) was “effective”, the in vitro activity (M. hyorthinis) was “effective” and the in vitro activity (species of Pasteurella) was “effective”. For the same compound, the activity [7] was “Activity was also found”, the activity [8] was “Activity was also found” and the activity [9] was “Activity was also found”.
